Values after ≈ are worked out from the molar mass of the structure shown. Read-outs that look alike come from different tables or passages of the source.
Experiments:
[1] = acute toxicity, LD 50, CD 1 mice; assay type: in vivo; conditions: mouse, in vivo
Source text: The acute toxicities of the compounds according to the invention have been determined on CD 1 (Charles RIVER) mice by intravenous and oral methods. The LD 50 of each compound has been calculated by the cumulative method of J. J. Reed and H. Muench, (Amer. J. Hyg., 1938, 27, 493).

[2] = test system: isolated duodenum of the rabbit (acetylcholine); test: spasmolytic effect on isolated duodenum, acetylcholine spasm; assay type: cell-based; conditions: Oryctolagus cuniculus, read-out: Spasmolytic effects EC 50 with respect to acetylcholine
Source text: (§1) Ges. Physiol., 102, 123, (1904) with respect to the spasms of the isolated duodenum of rabbits caused either by acetylchlorine for the spasmolytic nemotropes or by barium chloride for the spasmolytic musculotropes.

serotonine = test: antiserotonine properties on the whole (all four tests); parameters: species or system rat, mice, guinea pig; conditions: comparison within the series
Source text: (§2) The anti-serotonine activities of the compounds according to the invention have been shown by oral administration to the CD (Charles RIVER) rats using the technique of the serotonine plantar oedema (W. Theobald and R. Domenjoz--Arzneimittel Forsch, 8, 18, 1958 and with the CD 1 (Charles RIVER) mice using the technique known as "head twitch" according to S. J. Corne, R. W. Pickering and B. T. Warner, Brit. J. Pharmacol., 20, 106, (1963). The anti-serotonine activity has also been determined on the one hand on the tricoloured guinea-pig, given intravenously, according to a method derived from H. Konzet and R. Rossler, Arch. exp. Pathol, Pharmakol., 195, 71, (1940) and on the other hand in vitro with respect to the serotonine spasm of the isolated uterus of the rat according to the technique of A. Fanchamps, W. Doepfener, H. Weidman and A. Cerletti, Schw. Med. Worsch, 90, 1940, (1960).

mouse [3] = test: traction test, mouse; assay type: in vivo, CD1 (Charles RIVER) mice; conditions: po, orally, read-out: Traction AD 50
Source text: (§3) The neuroloptic effects of the compounds according to the invention have been shown with respect to the CD rat (Charles RIVER) taken orally in the catalepsy test according to S. COURVOISIER, R. DUCROT, and L. JULOU, in Psychotropic Drugs, S. GARATTINI and V. GHETTI, Edit.--ELSEVIER Publ. Co., AMSTERDAM, LONDON, NEW YORK, PRINCETON, 1957 P. 373 and also in the traction test of CD1 (Charles RIVER) mice taken orally S. COURVOISIER, Quart. Rev. Psychiat. Neurol. 17, 25 (1956), on the one hand and also in the spontaneous motility test.

[4] = test system: isolated duodenum of the rabbit; test: spasmolytic activity overall; assay type: cell-based; conditions: isolated duodenum of rabbits
Source text: as §1

[5] = test system: serotonine plantar oedema; test: anti-serotonine activity, serotonine plantar oedema; assay type: in vivo, CD (Charles RIVER) rats; conditions: po; rat, orally; read-out: Serotonine plantar oedema AD 50
Source text: as §2

[6] = test system: isolated duodenum of the rabbit (barium chloride); test: spasmolytic effect on isolated duodenum, barium chloride spasm; assay type: cell-based; conditions: Oryctolagus cuniculus, read-out: Spasmolytic effects EC 50 with respect to barium chloride
Source text: as §1

rat = test: catalepsy test, rat; assay type: in vivo, CD rat (Charles RIVER); conditions: po, orally, read-out: Catalepsy AD 50
Source text: as §3

mice = test: analgesic activity, painful abdominal torsions test with phenylbenzoquinone; assay type: in vivo, CD 1 (Charles RIVER) mice; conditions: for ED50: Mus musculus, po, mice, orally, read-out: Phenylbenzoquinone test on mice AD 50
Source text: The analgesic properties of the products according to the invention have been shown with CD 1 (Charles RIVER) mice in the painful abdominal torsions test with phenylbenzoquinone according to the technique of E. Siegmund, R. Cadmus and Go.Lu--Proc. Soc. Exp. Biol. Med., 95, 729, (1957).

head twitch = test: anti-serotonine activity, head twitch; assay type: in vivo, CD 1 (Charles RIVER) mice; conditions: Mus musculus, po; mice, orally; read-out: "Head-twitch" AD 50
Source text: as §2

mouse [7] = test: spontaneous motility test (hypomotility), mouse; assay type: in vivo, mice; conditions: po, 1 h, orally, 60 minutes before measuring, 50% reduction of mean motility, first 5 minutes, read-out: Hypomotility ED 50
Source text: as §3
This latter technique comprises keeping an account of the displacements of the mice by means of a floor of metal strips which enables the spontaneous activity of the animals to be recorded during the first 5 minutes subsequent to their being introduced into the measuring chamber. The products are dispensed 60 minutes before measuring is effected and 10 mice are used per dose. The results are expressed in ED 50 which represents the dose of substance capable of reducing the mean motility of the treated animals by 50% relative to that of the sample group which has only received the dispensing carrier.

dogs = test: anti-emetic activity, apomorphine vomiting test on dogs; assay type: in vivo; conditions: dogs; for ED50: Canis lupus familiaris, po, orally, apomorphine, read-out: Anti-emetic activity on dogs ED 50
Source text: The anti-emetic properties of the compounds according to the invention have been shown by oral administration of apomorphine to dogs in the vomiting test according to G. Chen and C. J. Ensor, Pharmacol. exp. Therap., 98, 24 (1950).

serotonine bronchospasms = test: anti-serotonine activity, serotonine bronchospasms; assay type: in vivo, tricoloured guinea-pig; conditions: Cavia porcellus, iv; guinea pig, intravenously; read-out: Serotonine bronchospasms ED 50
Source text: as §2

solubility = assay type: physicochemical
[8] = intravenous, read-out: Acute toxicity for mice LD 50, intravenous
[9] = oral, read-out: Acute toxicity for mice LD 50, orally

| SMILES | LD50 [1, 8] [mg/kg] | LD50 [1, 9] [mg/kg] | EC50 [2] [µg/mL] | antiserotonine properties ranking (serotonine) | ED50 (mouse [3]) [mg/kg] | spasmolytic activity type / ranking [4] | ED50 [5] [mg/kg] | EC50 [6] [µg/mL] | ED50 (rat) [mg/kg] | ED50 (mice) [mg/kg] | analgesic activity ranking (mice; comparison within the series) | ED50 (head twitch) [mg/kg] | ED50 (mouse [7]) [mg/kg] | ED50 (dogs) [mg/kg] | ED50 (serotonine bronchospasms) [mg/kg] | solubility in dilute hydrochloric acid (solubility) | solubility in ethanol (alcohol) (solubility) | solubility in water (solubility) | solubility in solvents (solubility; solvents) | anti-vomiting ranking (dogs; comparison within the series) |
| --- | --- | --- | --- | --- | --- | --- | --- | --- | --- | --- | --- | --- | --- | --- | --- | --- | --- | --- | --- | --- |
| COCCCNc1nc(Cl)c(SC)c(N2CCN(C)CC2)n1 [Example 5, 3'-Methoxy-2-propylamino-4-N-methylpiperazino-6-chloro-5-methylthio-pyrimidine] | 56 | ~200 | > 5 | the greatest antiserotonine properties on the whole | 30 | most effective | 90 | 1.3 (≈ 3.76 µM) | 175 | 35 | the most active |  |  |  |  |  |  |  |  |  |
| CCCCCNc1nc(Cl)c(SC)c(N2CCN(C)CC2)n1 [Example 24, 2-n.pentylamino-4-N-methylpiperazino-6-chloro-5-methylthiopyrimidine] | 87 | ~600 | 0.5 (≈ 1.45 µM) | the greatest antiserotonine properties on the whole | 210 | most effective | > 300 | 0.12 (≈ 0.349 µM) | 400 | 100 |  | 25 | 80 | 1.9 | 0.05 | soluble | very soluble | insoluble |  |  |
| CCCCCCNc1nc(Cl)c(SC)c(N2CCN(C)CC2)n1 [Example 25, 2-n.hexylamino-4-N-methylpiperazino-6-chloro-5-methylthiopyrimidine] | 70 |  | 1 (≈ 2.79 µM) |  | > 300 | most effective | ~300 | 0.2 (≈ 0.559 µM) | > 300 | 85 |  | 55 | 70 | 5 | 0.18 | soluble | very soluble | insoluble | very soluble |  |
| CCCNc1nc(Cl)c(SC)c(N2CCN(C)CC2)n1 [Example 30, 2-n.propylamino-4-N-methylpiperazino-6-chloro-5-methylthiopyrimidine] | 60 | ~200 | 9 (≈ 28.5 µM) | the greatest antiserotonine properties on the whole |  | most effective |  | 0.2 (≈ 0.633 µM) | > 300 | > 400 |  | 10 | 25 | 0.16 | 0.05 | soluble | soluble | insoluble |  | the most strong anti-vomiting agents |
| CCCCNc1nc(Cl)c(SC)c(N2CCN(C)CC2)n1 [Example 31, 2-n.butylamino-4-N-methylpiperazino-6-chloro-5-methylthiopyrimidine] | 98 | ~225 | 1.2 (≈ 3.64 µM) | the greatest antiserotonine properties on the whole |  |  | > 100 | 0.3 (≈ 0.909 µM) |  | 100 |  | 13 | 20 | ~3 | 0.1 | soluble | soluble | insoluble |  |  |

— patent US4166852A, “Piperazino-pyrimidines and their use as spasmolytic agents” (priority 1974, dated 1979)
